For eight compounds, mutagenic call results are on record in PubChem BioAssay AID1259407 (Chemical Carcinogenesis Research Information System (CCRIS), 2018).

Each structure is given as a SMILES string. Activity calls are given as the source filed them. No rule for the calls is given here.

For this data set, the system named is CCRIS mutagenicity, Ames/micronucleus/aberration tests. In words: CCRIS mutagenicity studies.
Where [1] appears, read: Test System: AMES SALMONELLA TYPHIMURIUM, Strain/Indicator: TA100, Metabolic Activation: RAT, LIVER, S-9, PHENOBARBITAL AND 5,6-BENZOFLAVONE, Method: PREINCUBATION
The mark [2] stands for this setting: Test System: AMES SALMONELLA TYPHIMURIUM, Strain/Indicator: TA100, Metabolic Activation: RAT, LIVER, S-9, AROCLOR 1254, Method: STANDARD PLATE.
The mark [3] stands for this setting: Test System: AMES SALMONELLA TYPHIMURIUM, Strain/Indicator: TA98, Metabolic Activation: HAMSTER, LIVER, S-9, AROCLOR 1254 (30%), Method: PREINCUBATION
The mark [4] stands for this setting: Test System: AMES SALMONELLA TYPHIMURIUM, Strain/Indicator: TA98, Metabolic Activation: NONE, Method: PREINCUBATION
[5] abbreviates: Test System: AMES SALMONELLA TYPHIMURIUM, Strain/Indicator: TA98, Metabolic Activation: RAT, LIVER, S-9, AROCLOR 1254 (30%), Method: PREINCUBATION
Where [6] appears, read: Test System: AMES SALMONELLA TYPHIMURIUM, Strain/Indicator: TA100, Metabolic Activation: HAMSTER, LIVER, S-9, AROCLOR 1254 (30%), Method: PREINCUBATION
The mark [7] stands for this setting: Test System: AMES SALMONELLA TYPHIMURIUM, Strain/Indicator: TA100, Metabolic Activation: NONE, Method: PREINCUBATION
[8] abbreviates: Test System: AMES SALMONELLA TYPHIMURIUM, Strain/Indicator: TA100, Metabolic Activation: RAT, LIVER, S-9, AROCLOR 1254 (30%), Method: PREINCUBATION
[9] abbreviates: Test System: AMES SALMONELLA TYPHIMURIUM, Strain/Indicator: TA100, Metabolic Activation: NONE, Method: STANDARD PLATE.

As for `NC(=NCCCCCCN=C(N)/N=C(\N)Nc1ccc(Cl)cc1)/N=C(\N)Nc1ccc(Cl)cc1`, the mutagenic call was “inactive; negative; toxic at 10 um” (End Point: IN VITRO CHROMOSOMAL ABERRATIONS, Test System: SYRIAN HAMSTER EMBRYO (SHE) CELLS, Metabolic Activation: NONE) and “inactive; negative” (End Point: IN VITRO CHROMOSOMAL ABERRATIONS, Test System: SYRIAN HAMSTER EMBRYO (SHE) CELLS, Metabolic Activation: RAT, LIVER, S-9).

For `c1cnc2c(c1)ccc1ncccc12`, the mutagenic call under setting [1] was “active; positive”.

For the compound `O[C@H]1C=Cc2c(ccc3cc4c(cc23)[C@H](O)[C@@H](O)c2ccccc2-4)[C@@H]1O`, the mutagenic call under setting [2] was “inactive; negative”.

`C=CCOC(=O)C=C`: the mutagenic call by setting is: (Test System: AMES SALMONELLA TYPHIMURIUM, Strain/Indicator: TA97, Metabolic Activation: HAMSTER, LIVER, S-9, AROCLOR 1254 (10 OR 30%), Method: PREINCUBATION) “inactive; negative”; (Test System: AMES SALMONELLA TYPHIMURIUM, Strain/Indicator: TA97, Metabolic Activation: NONE, Method: PREINCUBATION) “inactive; negative”; (Test System: AMES SALMONELLA TYPHIMURIUM, Strain/Indicator: TA97, Metabolic Activation: RAT, LIVER, S-9, AROCLOR 1254 (10 OR 30%), Method: PREINCUBATION) “inactive; negative”; (Test System: AMES SALMONELLA TYPHIMURIUM, Strain/Indicator: TA98, Metabolic Activation: HAMSTER, LIVER, S-9, AROCLOR 1254 (10%), Method: PREINCUBATION) “inactive; negative”; under setting [3], “inactive; negative”; under setting [4], “inactive; negative”. For the same compound, the mutagenic call reads like this: (Test System: AMES SALMONELLA TYPHIMURIUM, Strain/Indicator: TA98, Metabolic Activation: RAT, LIVER, S-9, AROCLOR 1254 (10%), Method: PREINCUBATION) “inactive; negative”; under setting [5], “inactive; negative”; (Test System: AMES SALMONELLA TYPHIMURIUM, Strain/Indicator: TA100, Metabolic Activation: HAMSTER, LIVER, S-9, AROCLOR 1254 (10%), Method: PREINCUBATION) “inactive; negative”; under setting [6], “inactive; negative”; under setting [7], “inactive; negative”; (Test System: AMES SALMONELLA TYPHIMURIUM, Strain/Indicator: TA100, Metabolic Activation: RAT, LIVER, S-9, AROCLOR 1254 (10%), Method: PREINCUBATION) “inactive; negative”. Besides, the mutagenic call runs as follows: under setting [8], “inactive; negative”; (Test System: AMES SALMONELLA TYPHIMURIUM, Strain/Indicator: TA1535, Metabolic Activation: HAMSTER, LIVER, S-9, AROCLOR 1254 (10%), Method: PREINCUBATION) “inactive; negative”; (Test System: AMES SALMONELLA TYPHIMURIUM, Strain/Indicator: TA1535, Metabolic Activation: HAMSTER, LIVER, S-9, AROCLOR 1254 (30%), Method: PREINCUBATION) “inactive; negative”; (Test System: AMES SALMONELLA TYPHIMURIUM, Strain/Indicator: TA1535, Metabolic Activation: NONE, Method: PREINCUBATION) “inactive; negative”; (Test System: AMES SALMONELLA TYPHIMURIUM, Strain/Indicator: TA1535, Metabolic Activation: RAT, LIVER, S-9, AROCLOR 1254 (10%), Method: PREINCUBATION) “inactive; negative”; (Test System: AMES SALMONELLA TYPHIMURIUM, Strain/Indicator: TA1535, Metabolic Activation: RAT, LIVER, S-9, AROCLOR 1254 (30%), Method: PREINCUBATION) “inactive; negative”. For the same compound, the mutagenic call (Test System: AMES SALMONELLA TYPHIMURIUM, Strain/Indicator: TA1537, Metabolic Activation: HAMSTER, LIVER, S-9, AROCLOR 1254 (10%), Method: PREINCUBATION) is “inactive; negative”; the mutagenic call (Test System: AMES SALMONELLA TYPHIMURIUM, Strain/Indicator: TA1537, Metabolic Activation: NONE, Method: PREINCUBATION) is “inactive; negative”; the mutagenic call (Test System: AMES SALMONELLA TYPHIMURIUM, Strain/Indicator: TA1537, Metabolic Activation: RAT, LIVER, S-9, AROCLOR 1254 (10%), Method: PREINCUBATION) is “inactive; negative”.

Regarding `C=C(CN(C)C)C(=O)c1ccccc1`, the mutagenic call is, setting by setting: (Test System: AMES SALMONELLA TYPHIMURIUM, Strain/Indicator: TA97A, Metabolic Activation: NONE, Method: SPOT TEST) “inactive; negative”; (Test System: AMES SALMONELLA TYPHIMURIUM, Strain/Indicator: TA97A, Metabolic Activation: RAT LIVER S-9, Method: SPOT TEST) “inactive; negative”; (Test System: AMES SALMONELLA TYPHIMURIUM, Strain/Indicator: TA98, Metabolic Activation: NONE, Method: SPOT TEST) “inactive; negative”; (Test System: AMES SALMONELLA TYPHIMURIUM, Strain/Indicator: TA98, Metabolic Activation: RAT LIVER S-9, Method: SPOT TEST) “inactive; negative”; (Test System: AMES SALMONELLA TYPHIMURIUM, Strain/Indicator: TA100, Metabolic Activation: NONE, Method: SPOT TEST) “inactive; negative”; (Test System: AMES SALMONELLA TYPHIMURIUM, Strain/Indicator: TA100, Metabolic Activation: RAT LIVER S-9, Method: SPOT TEST) “active; positive”. For the same compound, the mutagenic call reads like this: (Test System: AMES SALMONELLA TYPHIMURIUM, Strain/Indicator: TA102, Metabolic Activation: NONE, Method: SPOT TEST) “inactive; negative”; (Test System: AMES SALMONELLA TYPHIMURIUM, Strain/Indicator: TA102, Metabolic Activation: RAT LIVER S-9, Method: SPOT TEST) “inactive; negative”; (Test System: AMES SALMONELLA TYPHIMURIUM, Strain/Indicator: TA104, Metabolic Activation: NONE, Method: SPOT TEST) “inactive; negative”; (Test System: AMES SALMONELLA TYPHIMURIUM, Strain/Indicator: TA104, Metabolic Activation: RAT LIVER S-9, Method: SPOT TEST) “inactive; negative”; (Test System: AMES SALMONELLA TYPHIMURIUM, Strain/Indicator: TA1535, Metabolic Activation: NONE, Method: SPOT TEST) “inactive; negative”; (Test System: AMES SALMONELLA TYPHIMURIUM, Strain/Indicator: TA1538, Metabolic Activation: NONE, Method: SPOT TEST) “inactive; negative”.

Consider `ClN1C2c3ccccc3-c3ccccc3C21` (centres undefined), for which the mutagenic call runs as follows: under setting [9], “active; positive”; (Test System: CHINESE HAMSTER V-79, Strain/Indicator: V-79/6-THIOGUANINE, Metabolic Activation: NONE, Method: STANDARD PLATE) “active; positive”.

Regarding `Cc1ccc2cccnc2c1`, the mutagenic call was “active; positive” under setting [3]; “inactive; negative” under setting [4]; “inactive; negative” under setting [5]; “active; positive” under setting [6]; “inactive; negative” under setting [7]; “active; positive” under setting [8]. Further, the mutagenic call is, setting by setting: under setting [1], “active; positive”; (Test System: AMES SALMONELLA TYPHIMURIUM, Strain/Indicator: TA100, Metabolic Activation: RAT, LIVER, S-9, PHENOBARBITAL AND 5,6-NAPHTHOFLAVONE, Method: PREINCUBATION) “active; positive”; (Test System: AMES SALMONELLA TYPHIMURIUM, Strain/Indicator: TA100, Metabolic Activation: RAT, LIVER, S-9, Method: PREINCUBATION) “active; positive”.

`Cn1cnc2c(N)ncnc21`: the mutagenic call (Test System: AMES SALMONELLA TYPHIMURIUM, Strain/Indicator: TA97, Metabolic Activation: NONE, Method: STANDARD PLATE) is “inactive; negative”; the mutagenic call (Test System: AMES SALMONELLA TYPHIMURIUM, Strain/Indicator: TA97, Metabolic Activation: RAT, LIVER, S-9, AROCLOR 1254, Method: STANDARD PLATE) is “inactive; negative”; the mutagenic call (Test System: AMES SALMONELLA TYPHIMURIUM, Strain/Indicator: TA98, Metabolic Activation: NONE, Method: STANDARD PLATE) is “inactive; negative”; the mutagenic call (Test System: AMES SALMONELLA TYPHIMURIUM, Strain/Indicator: TA98, Metabolic Activation: RAT, LIVER, S-9, AROCLOR 1254, Method: STANDARD PLATE) was “active; positive”; the mutagenic call under setting [9] is “inactive; negative”; the mutagenic call under setting [2] is “inactive; negative”.
